Series [1] in a line: DRUGMATRIX: Atrial Natriuretic Factor (ANF) radioligand binding (ligand: [125I] ANF (rat)). The settings on record: Not Active = under 50% inhibition at 10 µM. In kind it is cell membranes, Cavia porcellus, Dunkin-Hartley, Adrenal gland, Membrane.
The next series deals with T1, Calcitonin receptor (Homo sapiens, UniProt P30988).
T1 sequence (P30988 whole entry): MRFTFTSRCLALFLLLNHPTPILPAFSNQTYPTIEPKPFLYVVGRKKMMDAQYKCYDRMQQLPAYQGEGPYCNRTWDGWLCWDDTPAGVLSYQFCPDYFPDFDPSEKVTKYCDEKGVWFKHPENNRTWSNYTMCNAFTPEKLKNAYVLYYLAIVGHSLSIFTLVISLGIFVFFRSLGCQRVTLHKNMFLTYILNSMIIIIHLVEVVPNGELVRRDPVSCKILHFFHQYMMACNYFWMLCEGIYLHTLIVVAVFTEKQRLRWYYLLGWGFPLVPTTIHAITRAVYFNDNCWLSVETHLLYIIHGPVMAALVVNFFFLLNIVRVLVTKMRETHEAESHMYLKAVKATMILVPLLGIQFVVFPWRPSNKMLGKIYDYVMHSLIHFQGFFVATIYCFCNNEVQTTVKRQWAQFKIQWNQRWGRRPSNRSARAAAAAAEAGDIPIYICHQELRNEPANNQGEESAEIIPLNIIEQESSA
In kind it is cell membranes, Membrane. Conditions: t47d.

In a further series the target is T2, Thromboxane-A synthase (Homo sapiens, UniProt P24557).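 Note: enzyme inhibition assay with PGH2 supplied as substrate; in other assays of this panel Not Active means under 50% inhibition at 10 µM.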
T2 sequence (P24557 whole entry): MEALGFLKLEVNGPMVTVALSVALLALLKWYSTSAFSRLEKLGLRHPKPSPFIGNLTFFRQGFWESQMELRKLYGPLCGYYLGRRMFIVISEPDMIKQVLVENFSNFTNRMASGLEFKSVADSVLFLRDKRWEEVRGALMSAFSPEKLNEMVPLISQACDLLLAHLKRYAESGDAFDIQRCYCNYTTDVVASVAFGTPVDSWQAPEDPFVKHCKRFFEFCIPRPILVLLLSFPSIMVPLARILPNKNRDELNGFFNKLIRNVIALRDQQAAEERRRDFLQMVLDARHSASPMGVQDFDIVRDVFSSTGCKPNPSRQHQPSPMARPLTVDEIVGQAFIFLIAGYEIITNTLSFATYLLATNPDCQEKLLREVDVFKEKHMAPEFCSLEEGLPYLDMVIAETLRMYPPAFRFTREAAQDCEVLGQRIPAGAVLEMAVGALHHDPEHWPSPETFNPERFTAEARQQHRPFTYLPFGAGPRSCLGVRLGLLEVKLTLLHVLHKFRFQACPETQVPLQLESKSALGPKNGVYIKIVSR
As to the kind of experiment: biochemical. In kind it is tissue-based, Platelet.

For another series, the target named is Cannabinoid receptor 1 (Homo sapiens, UniProt P21554). In kind it is cell membranes, Membrane. The settings on record: chem-1. Note: in other assays of this panel Not Active means under 50% inhibition at 10 µM.
For series [2], the target named is T3, Muscarinic acetylcholine receptor M4 (Homo sapiens, UniProt P08173). Note: in other assays of this panel Not Active means under 50% inhibition at 10 µM.
T3 sequence (P08173 whole entry): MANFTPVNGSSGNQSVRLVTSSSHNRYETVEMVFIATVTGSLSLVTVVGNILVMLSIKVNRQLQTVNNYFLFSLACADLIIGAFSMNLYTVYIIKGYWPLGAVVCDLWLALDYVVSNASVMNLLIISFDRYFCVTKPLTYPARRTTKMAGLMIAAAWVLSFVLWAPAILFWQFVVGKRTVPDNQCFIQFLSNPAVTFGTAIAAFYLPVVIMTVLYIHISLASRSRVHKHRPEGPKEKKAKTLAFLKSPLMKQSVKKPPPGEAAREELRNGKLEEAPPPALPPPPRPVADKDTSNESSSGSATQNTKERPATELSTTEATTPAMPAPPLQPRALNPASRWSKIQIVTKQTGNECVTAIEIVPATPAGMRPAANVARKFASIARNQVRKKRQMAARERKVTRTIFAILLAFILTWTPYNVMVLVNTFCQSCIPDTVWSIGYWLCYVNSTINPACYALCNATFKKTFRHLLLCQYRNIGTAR
In kind it is cell membranes, CHO-K1, Membrane. The settings on record: for Ki: read-out: Ki.

In a further series the target is T4, Caspase-1 (Homo sapiens, UniProt P29466).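 Note: Caspase-1 enzyme inhibition assay with a peptide substrate; in other assays of this panel Not Active means under 50% inhibition at 10 µM.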
T4 sequence (P29466 whole entry): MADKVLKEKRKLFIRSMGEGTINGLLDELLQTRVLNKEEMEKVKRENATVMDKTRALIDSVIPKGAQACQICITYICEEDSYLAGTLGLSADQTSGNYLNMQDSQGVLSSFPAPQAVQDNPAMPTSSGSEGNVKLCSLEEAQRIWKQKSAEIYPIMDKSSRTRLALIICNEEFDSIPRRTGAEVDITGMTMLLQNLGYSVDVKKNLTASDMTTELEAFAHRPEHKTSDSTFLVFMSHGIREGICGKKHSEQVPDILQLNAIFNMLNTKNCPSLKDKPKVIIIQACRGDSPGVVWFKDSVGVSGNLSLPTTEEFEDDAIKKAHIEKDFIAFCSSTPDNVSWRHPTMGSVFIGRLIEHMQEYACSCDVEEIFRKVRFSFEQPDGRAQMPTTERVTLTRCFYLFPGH
Also noted: species or system Escherichia coli.

The target in another series is Cytochrome P450 2E1 (Homo sapiens, UniProt P05181). Conditions: bti-tn-5b1-4. Note: in other assays of this panel Not Active means under 50% inhibition at 10 µM.
The target of a further series is Cytochrome P450 3A4 (Homo sapiens, UniProt P08684). Conditions: bti-tn-5b1-4. Note: in other assays of this panel Not Active means under 50% inhibition at 10 µM.
Chain of Cytochrome P450 3A4 (P08684 whole entry): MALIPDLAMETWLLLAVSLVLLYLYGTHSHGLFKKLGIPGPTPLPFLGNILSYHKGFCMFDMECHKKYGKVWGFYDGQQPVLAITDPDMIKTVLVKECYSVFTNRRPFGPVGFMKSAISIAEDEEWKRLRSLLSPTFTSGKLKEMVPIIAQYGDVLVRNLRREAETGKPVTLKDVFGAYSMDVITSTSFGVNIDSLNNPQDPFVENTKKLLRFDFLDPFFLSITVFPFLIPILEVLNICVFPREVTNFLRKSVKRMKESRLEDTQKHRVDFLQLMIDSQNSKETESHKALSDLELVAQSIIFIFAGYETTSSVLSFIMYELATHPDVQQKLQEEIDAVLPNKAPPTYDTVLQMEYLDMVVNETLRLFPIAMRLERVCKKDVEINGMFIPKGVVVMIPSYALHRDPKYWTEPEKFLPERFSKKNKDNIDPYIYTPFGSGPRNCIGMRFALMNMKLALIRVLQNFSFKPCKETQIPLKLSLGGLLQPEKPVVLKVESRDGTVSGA

Chain of Cannabinoid receptor 1 (P21554 whole entry): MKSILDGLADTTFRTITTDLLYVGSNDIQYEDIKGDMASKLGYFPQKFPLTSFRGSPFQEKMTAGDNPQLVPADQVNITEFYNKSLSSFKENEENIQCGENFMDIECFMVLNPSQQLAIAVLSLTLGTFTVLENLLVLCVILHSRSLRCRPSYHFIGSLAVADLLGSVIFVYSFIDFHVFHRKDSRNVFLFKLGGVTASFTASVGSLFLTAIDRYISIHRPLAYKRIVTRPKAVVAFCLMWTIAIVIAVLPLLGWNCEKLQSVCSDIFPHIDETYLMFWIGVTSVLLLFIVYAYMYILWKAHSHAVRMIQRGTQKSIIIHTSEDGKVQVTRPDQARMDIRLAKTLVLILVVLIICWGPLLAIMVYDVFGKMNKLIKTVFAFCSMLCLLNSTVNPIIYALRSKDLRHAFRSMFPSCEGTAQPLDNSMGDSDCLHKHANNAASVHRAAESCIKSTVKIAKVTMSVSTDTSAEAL
Chain of Cytochrome P450 2E1 (P05181 whole entry): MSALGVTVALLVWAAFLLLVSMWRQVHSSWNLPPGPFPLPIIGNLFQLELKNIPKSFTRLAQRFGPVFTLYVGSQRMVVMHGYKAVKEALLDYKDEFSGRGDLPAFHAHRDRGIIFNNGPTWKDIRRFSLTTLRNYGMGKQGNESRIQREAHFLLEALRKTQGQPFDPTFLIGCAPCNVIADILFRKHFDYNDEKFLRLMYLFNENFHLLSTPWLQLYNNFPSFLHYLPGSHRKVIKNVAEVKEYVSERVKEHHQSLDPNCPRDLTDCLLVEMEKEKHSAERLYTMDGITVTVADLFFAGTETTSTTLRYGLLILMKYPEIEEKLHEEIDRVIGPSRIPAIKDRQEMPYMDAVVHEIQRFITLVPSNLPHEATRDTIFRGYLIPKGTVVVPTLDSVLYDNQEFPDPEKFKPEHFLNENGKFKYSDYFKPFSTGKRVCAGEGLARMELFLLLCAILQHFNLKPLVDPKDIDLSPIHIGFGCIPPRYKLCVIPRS

Take `CC(C)(C)NC(=O)[C@@H]1C[C@@H]2CCCC[C@@H]2CN1C[C@@H](O)[C@H](Cc1ccccc1)NC(=O)[C@H](CC(N)=O)NC(=O)c1ccc2ccccc2n1`: the IC50 result in series [1] is “Not Active”; at Calcitonin receptor it was “Not Active”; on Thromboxane-A synthase (read-out: IC50), 2180 nM; at Cannabinoid receptor 1, “Not Active”; in series [2] (cho-k1), “Not Active”; on Caspase-1, “Not Active”. For the same compound, the IC50 result at Cytochrome P450 2E1 and against Cytochrome P450 3A4 was “Not Active” each time. Also, the Ki entry (in series [1]; on Cytochrome P450 2E1; on Cytochrome P450 3A4) was “Not Active” in each case.

Turning to `CC1(C)O[C@@H]2C[C@H]3[C@@H]4CCC5=CC(=O)C=C[C@]5(C)[C@@]4(F)[C@@H](O)C[C@]3(C)[C@]2(C(=O)CO)O1` [TRIAMCINOLONE ACETONIDE], the IC50 entry (in series [1]; on Calcitonin receptor; on Thromboxane-A synthase (platelet); on Cannabinoid receptor 1; in series [2] (cho-k1); on Caspase-1) was “Not Active” each time. For the same compound, the IC50 entry against Cytochrome P450 2E1 and against Cytochrome P450 3A4 was “Not Active” throughout. In addition, the Ki result (in series [1]; at Cytochrome P450 2E1; on Cytochrome P450 3A4) was “Not Active” in each case.

Consider `Cc1cccc(N(C)C(=S)Oc2ccc3ccccc3c2)c1` [TOLNAFTATE], for which the IC50 result (in series [1]; on Calcitonin receptor; on Thromboxane-A synthase (platelet); against Cannabinoid receptor 1; in series [2] (cho-k1); on Caspase-1) was “Not Active” each time. Besides, the half-maximal inhibitory concentration (IC50) result on Cytochrome P450 2E1 and against Cytochrome P450 3A4 was “Not Active” in each case. For the same compound, the Ki entry (in series [1]; on Cytochrome P450 2E1; on Cytochrome P450 3A4) was “Not Active” in each case.

For the compound `Cn1ccnc1S` [METHIMAZOLE], the IC50 entry (in series [1]; on Calcitonin receptor; at Thromboxane-A synthase (platelet); at Cannabinoid receptor 1; in series [2] (cho-k1); on Caspase-1) was “Not Active” each time. Also, at Cytochrome P450 2E1, the IC50 result was “Not Active”. Moreover, the Ki result (in series [1]; on Cytochrome P450 2E1) was “Not Active” throughout.

With `CN1CCN(CCCN2c3ccccc3Sc3ccc(Cl)cc32)CC1` [PROCHLORPERAZINE], the IC50 result at Calcitonin receptor was “Not Active”; against Thromboxane-A synthase (platelet), “Not Active”; against Cannabinoid receptor 1, “Not Active”; in series [2] (read-out: IC50), 1360 nM; at Caspase-1, “Not Active”; against Cytochrome P450 2E1, “Not Active”. Also, the IC50 entry at Cytochrome P450 3A4 was “Not Active”. The Ki is 190 nM in series [2], “Not Active” at Cytochrome P450 2E1 and “Not Active” on Cytochrome P450 3A4.

As for `Nc1nc2ccc(OC(F)(F)F)cc2s1` [RILUZOLE], the IC50 entry (in series [1]; at Calcitonin receptor; against Thromboxane-A synthase (platelet); against Cannabinoid receptor 1; in series [2] (cho-k1); against Caspase-1) was “Not Active” in each case. Moreover, in series [1], the Ki result is recorded as “Not Active”.

Consider `Cc1nc2n(c(=O)c1CCN1CCC(c3noc4cc(F)ccc34)CC1)CCCC2` [RISPERIDONE], for which the IC50 entry (at Calcitonin receptor; on Thromboxane-A synthase (platelet); on Cannabinoid receptor 1; in series [2] (cho-k1); at Caspase-1; at Cytochrome P450 2E1) was “Not Active” throughout. In addition, the Ki result at Cytochrome P450 2E1 was “Not Active”.

For the compound `N[C@@H](Cc1cc(I)c(Oc2ccc(O)c(I)c2)c(I)c1)C(=O)O` [LIOTHYRONINE], the IC50 result (at Calcitonin receptor; on Thromboxane-A synthase (platelet); at Cannabinoid receptor 1; in series [2] (cho-k1); on Caspase-1; on Cytochrome P450 2E1) was “Not Active” in each case. Further, at Cytochrome P450 2E1, the Ki result is listed as “Not Active”.

Take `OCCN(CCO)c1nc(N2CCCCC2)c2nc(N(CCO)CCO)nc(N3CCCCC3)c2n1` [DIPYRIDAMOLE]: the IC50 entry (in series [1]; on Calcitonin receptor; at Thromboxane-A synthase (platelet); on Cannabinoid receptor 1; in series [2] (cho-k1); against Caspase-1) was “Not Active” throughout. Besides, the IC50 result against Cytochrome P450 2E1 was “Not Active”. Also, the Ki result (in series [1]; on Cytochrome P450 2E1) was “Not Active” throughout.

In the case of `CCCCc1oc2ccccc2c1C(=O)c1cc(I)c(OCCN(CC)CC)c(I)c1` [AMIODARONE], the IC50 result was “Not Active” at Calcitonin receptor; “Not Active” against Thromboxane-A synthase (platelet); “Not Active” at Cannabinoid receptor 1; 3630 nM in series [2] (read-out: IC50); “Not Active” on Caspase-1; “Not Active” at Cytochrome P450 2E1. Further, the Ki in series [2] was 506 nM; at Cytochrome P450 2E1 it was “Not Active”.

Take `CCOC(=O)N1CCC(=C2c3ccc(Cl)cc3CCc3cccnc32)CC1` [LORATADINE]: the IC50 entry (in series [1]; at Calcitonin receptor; against Thromboxane-A synthase (platelet); against Cannabinoid receptor 1; in series [2] (cho-k1); at Caspase-1) was “Not Active” throughout. Besides, the IC50 entry against Cytochrome P450 2E1 is on record as “Not Active”. Besides, the Ki entry (in series [1]; on Cytochrome P450 2E1) was “Not Active” each time.

Turning to `CC(C)N1CCN(c2ccc(OCC3COC(Cn4cncn4)(c4ccc(Cl)cc4Cl)O3)cc2)CC1` (stereo not drawn) [TERCONAZOLE], the IC50 entry on Calcitonin receptor is “Not Active”; against Thromboxane-A synthase (platelet), “Not Active”; against Cannabinoid receptor 1, “Not Active”; in series [2] (read-out: IC50) it was 13700 nM; on Caspase-1 it was “Not Active”; on Cytochrome P450 2E1 it was “Not Active”. The IC50 entry on Cytochrome P450 3A4 is recorded as “Not Active”. Further, the Ki in series [2] is 1910 nM; on Cytochrome P450 2E1, “Not Active”; on Cytochrome P450 3A4, “Not Active”.

With `CC/C(=C(\c1ccccc1)c1ccc(OCCN(C)C)cc1)c1ccccc1` [TAMOXIFEN], the IC50 entry at Calcitonin receptor is “Not Active”; on Thromboxane-A synthase (read-out: IC50), 916 nM; on Cannabinoid receptor 1 it was “Not Active”; in series [2] (read-out: IC50), 4820 nM; against Caspase-1, “Not Active”; at Cytochrome P450 2E1, “Not Active”. Further, the IC50 result against Cytochrome P450 3A4 is “Not Active”. The Ki was 672 nM in series [2], “Not Active” at Cytochrome P450 2E1 and “Not Active” at Cytochrome P450 3A4.

Regarding `CO[C@H]1/C=C/O[C@@]2(C)Oc3c(C)c(O)c4c(O)c(c(/C=N/N5CCN(C)CC5)c(O)c4c3C2=O)NC(=O)/C(C)=C\C=C\[C@H](C)[C@H](O)[C@@H](C)[C@@H](O)[C@@H](C)[C@H](OC(C)=O)[C@@H]1C` [RIFAMPIN], the IC50 result in series [1] is “Not Active”; on Calcitonin receptor, “Not Active”; on Thromboxane-A synthase (platelet), “Not Active”; against Cannabinoid receptor 1 it was “Not Active”; in series [2] (cho-k1), “Not Active”; on Caspase-1 (read-out: IC50), 8320 nM. For the same compound, at Cytochrome P450 2E1, the IC50 result is “Not Active”. Also, the Ki result (in series [1]; at Cytochrome P450 2E1) was “Not Active” throughout.

(Values after ChEMBL document CHEMBL1909046, “DrugMatrix in vitro pharmacology data”.)
